Measured values reported in patent US4136188A, “Treatment of diabetes with 2-substituted-1,3-diazacyclic compounds” (priority 1976, dated 1979).

What was measured:
blood glucose [1] = test: Hypoglycemic activity: dose-effect relationship in normal rats; type: in vivo, male Wistar rats
Experimental: Five male Wistar rats weighing about 170g were used at each dosage level. […] 2, 3 and 5 hours after administration, a blood sample was taken from the tail vein of the rat and assayed for glucose by the glucose oxidase method.

blood glucose [2] = test: Glucose tolerance test in normal rats; type: in vivo, male Wistar rats
Experimental: Five male Wistar rats weighing about 200g were used at each dose level. An aqueous solution or suspension of a test compound was orally administered by means of a stomach tube to each rat which had not been fed for 24 hours before administration. […] Blood samples were taken from the tail vein just before and 15, 30, 60 and 90 minutes after glucose loading, and were assayed for blood glucose. The glucose tolerance of the rats was estimated by the increase in blood glucose during the 90 minutes after glucose loading [formula]

blood glucose [3] = test: Glucose tolerance test in streptozotocin-induced mildly diabetic rats; type: in vivo, male Wistar rats (streptozotocin diabetic)
Experimental: An aqueous solution or suspension of a test compound was orally administered to male Wistar rats which had not been fed for 24 hours prior to oral administration and which had been rendered diabetic for about 2 months by a single intravenous injection of streptozotocin (20 mg/kg body weight). Control diabetic rats received water. Unfed (fasted) and fed blood glucose levels of the rats were 89 ± 1~103 ± 4 mg/dl and 123 ± 2~189 ± 11 mg/dl, respectively. […] Blood samples were taken from the tail vein just before and 15, 30, 60 and 90 minutes after glucose loading, and were assayed for blood glucose. The glucose tolerance of the rats was estimated by the increase in blood glucose during the 90 minutes after glucose loading, i.e., [formula]

[4] = test system: immunoreactive insulin (IRI); test: Insulin releasing action; type: in vivo, male Wistar rat
Experimental: A saline solution containing a test compound was injected into the femoral vein of a normal male Wistar rat weighing about 200 g under pentobarbital anesthesia (5 rats/group). Control rats received a saline injection. Blood samples were taken from the tail vein before and 10, 20, 30 and 40 minutes after injection of the test compound, and were assayed for immunoreactive insulin (IRI) by the method of C. R. Morgan et al (Diabetes, 12, 115.1963).

platelet aggregation = test: Inhibitory action on collagen-induced platelet aggregation in platelet rich plasma; type: cell-based; details: concentration giving 50% inhibition of reaction rate of collagen-induced platelet aggregation, rat platelet rich plasma, 30° C; read-out: Inhibitory Action ID50
Experimental: Platelet rich plasma was prepared by centrifugation (1000 rpm, 5 min.) of fresh citrated rat blood. Fifty microliters of a solution containing a test compound at various concentrations were added to 0.4 ml of the platelet rich plasma, and the mixture was stirred for 1 minute at 1100 rpm and 30° C. Then, 50 μl of a collagen suspension was added to initiate platelet aggregation, which was measured turbidometrically according to G.V.R. Born (Nature, 194, 927, 1962). The ID50 values represent the concentration (mM) of the compound giving a 50% inhibition of the reaction rate of […] platelet aggregation.

serum lactate = test: Effect on serum lactate level; type: in vivo, male Wister rat; details: 200 mg/kg daily oral for 4 days; for Percent of Initial Serum Lactate, 24 hrs: just before the 2nd dosing; for Percent of Initial Serum Lactate, 76 hrs: 3 hours after the last dosing
Experimental: An aqueous solution or suspension of a test compound was orally administered to a normal male Wister rat weighing about 200 g at a daily dose of 200 mg/kg body weight for 4 days (5 rats/group). Blood samples were taken consecutively from the tail vein, and were assayed for serum lactate by the method of Hans-Jurgens Hohorst (Methods of Enzymatic Analysis, ed. by Hans Ulrich Bergmayer, Academic Press Inc., New York, 1965).

blood glucose [5] = test: Long-term administration in streptozotocin-induced diabetic rats: fed blood glucose; type: in vivo, male Wistar rats (streptozotocin diabetic); details: 485 ± 18 at start, control 415 ± 27
Experimental: (§1) Diabetes was induced in male Wistar rats weighing about 170 g by a single intraperitoneal (60 mg/kg body weight) or intravenous (35 mg/kg) injection of streptozotocin. […] These rats were treated with Compound A, tolubutamide or phenformin at a daily oral dose of 25, 50 or 10 mg/kg body weight, respectively. Control diabetic rats received no treatment. The treatment was started 1 month after streptozotocin injection and continued for 4 (tolubutamide and phenformin) or 5 months (Compound A).
Fed blood glucose levels of the rats were 485 ± 18 mg/dl at the start of the treatment and 415 ± 27 (control group), 423 ± 17 (Compound A group), 447 ± 15 (tolubutamide group) and 425 ± 29 mg/dl (phenformin group) at the end of the experiment.

serum lipids = test: Long-term administration in streptozotocin-induced diabetic rats: serum lipids; type: in vivo, male Wistar rats (streptozotocin diabetic); details: for hyperlipidemia / serum triglyceride tendency (in words): long-term administration, diabetic rats
Experimental: as §1
(§2) At the end of the experiment, the rats were sacrificed for histological examination of the kidneys and the liver and for determination of serum lipids.

[6] = Acute toxicity in rats by oral administration; details: rat, in vivo, male Donryu rats, mortality on the 7th day, Litchfield and Wilcoxon
Experimental: Acute Toxicity tests were carried out in rats by oral administration. Each LD50 was calculated from the mortality percentage on the 7th day according to the method of Litchfield and Wilcoxon. Ten male rats of the Donryu strain were used at each dose level.

kidneys = test: Long-term administration in streptozotocin-induced diabetic rats: histological examination of the kidneys; type: in vivo, male Wistar rats (streptozotocin diabetic)
Experimental: as §1, §2

[7] = 25 mg/kg oral, fasted normal rats
[8] = 10 mg/kg oral, 1 hour prior to glucose loading
[9] = 10 mg/kg oral, 1 hour prior to glucose loading (1 g/kg i.p.), control 121 ± 14 (A), 127 ± 8 (B, C)
[10] = 10 mg/kg oral, 1 hour prior to glucose loading, control 265 ± 21 (A), 206 ± 18 (B, C)
[11] = 25 mg/kg daily, 5 months, 7 rats
[12] = 25 mg/kg i.v., control 50 ± 8, 0-40 minutes
[13] = 10 mg/kg daily, 4 months, 7 rats, * = significant, p < 0.05 vs. diabetic control
[14] = 20 mg/kg oral, given 30 minutes prior to glucose loading
[15] = 50 mg/kg daily, 4 months, 8 rats

## 1-methyl-2-benzhydryliminoimidazolidine.hydroiodide [Example 4]
Blood glucose [1]; [7]
  Decrease in blood glucose (% based on the control), 3 hrs: 32%
  Decrease in blood glucose (% based on the control), 5 hrs: 19%

## 2-benzhydryliminoimidazolidine hydrochloride [Example 3]
Blood glucose [1]; [7]
  Decrease in blood glucose (% based on the control), 3 hrs: 39%
  Decrease in blood glucose (% based on the control), 5 hrs: 39%

## CN1CCNC1=NC(c1ccccc1)c1ccccc1 [Compound A, 1-methyl-2-benzhydryliminoimidazolidine]
Blood glucose [2]; [8]
  Increase in glucose tolerance: 52.1%
Blood glucose [2]; [9]
  Increase in blood glucose during the 90 minutes after glucose loading, test compound (head [drawing 13]): 58 ± 4
Blood glucose [3]; [8]
  Improvement of glucose tolerance: 43.0%
Blood glucose [3]; [10]
  Increase in blood glucose during the 90 minutes after glucose loading, test compound (head [drawing 15]): 151 ± 43
[4]; 25 mg/kg i.v., second column (control 42 ± 19), 0-40 minutes
  Insulin Released [ΣΔIRI (0-40)]: 208 ± 21 μunit/ml serum
Platelet aggregation
  IC50: 320 µM
Serum lactate
  Percent of Initial Serum Lactate, 24 hrs: 114.9%
  Percent of Initial Serum Lactate, 76 hrs: 94.6%
Blood glucose [5]; 25 mg/kg daily oral, 5 months
  Fed blood glucose level at the end of the experiment: 423 ± 17 mg/dL
Serum lipids; [11]
  Serum cholesterol: 78.7 % of control
  Serum free fatty acid: 86.1 % of control
Serum lipids; 25 mg/kg daily, 5 months, 7 rats, * = significant, p < 0.05 vs. diabetic control
  Serum triglyceride: 53.0 % of control
[6]
  LD50 at 168 h: 660 mg/kg

## c1ccc(C(CC2=NCCN2)c2ccccc2)cc1 [Compound B, 2-(2,2-diphenylethyl)-2-imidazoline]
Blood glucose [2]; [8]
  Increase in glucose tolerance: 96.9%
Blood glucose [2]; [9]
  Increase in blood glucose during the 90 minutes after glucose loading, test compound (head [drawing 13]): 4 ± 12
Blood glucose [3]; [8]
  Improvement of glucose tolerance: 74.8%
Blood glucose [3]; [10]
  Increase in blood glucose during the 90 minutes after glucose loading, test compound (head [drawing 15]): 52 ± 12
[4]; [12]
  Insulin Released [ΣΔIRI (0-40)]: 250 ± 13 μunit/ml serum
Platelet aggregation
  IC50: 50 µM
Serum lactate
  Percent of Initial Serum Lactate, 24 hrs: 139.6%
  Percent of Initial Serum Lactate, 76 hrs: 113.3%
[6]
  LD50 at 168 h: 562 mg/kg

## CN1CCN=C1CC(c1ccccc1)c1ccccc1 [Compound C, 1-methyl-2-(2,2-diphenylethyl)-2-imidazoline]
Blood glucose [2]; [8]
  Increase in glucose tolerance: 26.0%
Blood glucose [2]; [9]
  Increase in blood glucose during the 90 minutes after glucose loading, test compound (head [drawing 13]): 94 ± 8
Blood glucose [3]; [8]
  Improvement of glucose tolerance: 17.5%
Blood glucose [3]; [10]
  Increase in blood glucose during the 90 minutes after glucose loading, test compound (head [drawing 15]): 170 ± 15
[4]; [12]
  Insulin Released [ΣΔIRI (0-40)]: 214 ± 17 μunit/ml serum
Platelet aggregation
  IC50: 120 µM

## CN1CCN(C(=O)c2ccccc2)C1=NC(c1ccccc1)c1ccccc1 [Compound D, 1-methyl-2-benzhydrylimino-3-benzoylimidazolidine]
Platelet aggregation
  IC50: 270 µM
[6]
  LD50 at 168 h: > 1000 mg/kg

## CN1CCN(C(=O)c2cccs2)C1=NC(c1ccccc1)c1ccccc1 [Compound E, 1-methyl-2-benzhydrylimino-3-thienoylimidazolidine]
Platelet aggregation
  IC50: 130 µM
[6]
  LD50 at 168 h: > 1000 mg/kg

## CN1CCN(C(=O)c2cccnc2)C1=NC(c1ccccc1)c1ccccc1 [Compound F, 1-methyl-2-benzhydrylimino-3-nicotinoyl-imidazolidine]
Platelet aggregation
  IC50: 480 µM

## CN1CCCC1=NC(c1ccccc1)c1ccccc1 [Compound Q, Benzhydryl Lactamimide, reference compound]
[4]; [12]
  Insulin Released [ΣΔIRI (0-40)]: 198 ± 16 μunit/ml serum

## CN1CCCC1=NC(c1ccccc1)c1ccccc1 [Compound Z, reference compound]
Serum lactate
  Percent of Initial Serum Lactate, 24 hrs: 152.1%
  Percent of Initial Serum Lactate, 76 hrs: 218.8%

## [H]/N=C(/N)N/C(=N/[H])NCCc1ccccc1 [Phenformin, phenformin, reference compound]
Blood glucose [1]; Dose = 100 mg/kg oral
  Decrease in blood glucose (% based on the control), 2 hrs: 10%
  Decrease in blood glucose (% based on the control), 3 hrs: 15%
  Decrease in blood glucose (% based on the control), 5 hrs: 15%
Serum lactate
  Percent of Initial Serum Lactate, 24 hrs: 196.6%
  Percent of Initial Serum Lactate, 76 hrs: 283.6%
Blood glucose [5]; 10 mg/kg daily oral, 4 months
  Fed blood glucose level at the end of the experiment: 425 ± 29 mg/dL
Serum lipids; [13]
  Serum cholesterol: 180.0 % of control
  Serum free fatty acid: 157.0 % of control
  Serum triglyceride: 225.7 % of control
Serum lipids
  hyperlipidemia / serum triglyceride tendency (in words): increased tendency of hyperlipidemia

## CCCCNC(=O)NS(=O)(=O)c1ccc(C)cc1 [Tolubutamide, tolubutamide, reference compound]
Blood glucose [1]; [7]
  Decrease in blood glucose (% based on the control), 2 hrs: 20%
  Decrease in blood glucose (% based on the control), 3 hrs: 24%
  Decrease in blood glucose (% based on the control), 5 hrs: 20%
Blood glucose [2]; [14]
  Increase in glucose tolerance: 31.4%
Blood glucose [2]; 20 mg/kg oral, given 30 minutes prior to glucose loading (1 g/kg i.p.), control 121 ± 14
  Increase in blood glucose during the 90 minutes after glucose loading, test compound (head [drawing 13]): 83 ± 14
Blood glucose [3]; [14]
  Improvement of glucose tolerance: 32.6%
Blood glucose [3]; 20 mg/kg oral, given 30 minutes prior to glucose loading, 3 rats, control 265 ± 21
  Increase in blood glucose during the 90 minutes after glucose loading, test compound (head [drawing 15]): 179 ± 23
[4]; 50 mg/kg i.v., control 50 ± 8, 0-40 minutes
  Insulin Released [ΣΔIRI (0-40)]: 189 ± 26 μunit/ml serum
[4]; 50 mg/kg i.v., second column (control 42 ± 19), 0-40 minutes
  Insulin Released [ΣΔIRI (0-40)]: 141 ± 14 μunit/ml serum
Blood glucose [5]; 50 mg/kg daily oral, 4 months
  Fed blood glucose level at the end of the experiment: 447 ± 15 mg/dL
Serum lipids; [15]
  Serum free fatty acid: 133.0 % of control
  Serum triglyceride: 186.8 % of control
Serum lipids; 50 mg/kg daily, 4 months, 8 rats, * = significant, p < 0.05 vs. diabetic control
  Serum cholesterol: 150.0 % of control
Serum lipids
  hyperlipidemia / serum triglyceride tendency (in words): increased tendency of hyperlipidemia
kidneys
  kidney histology: diffuse glomerulosclerosis and tubular alterations (in words): to some extent, deteriorated
